According to PubChem BioAssay (NCI):
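Test compounds were applied to cells in 96-well plates for 48 hours at 5 doses. The concentration for 50% growth inhibition is given as GI50. TGI is the concentration that stops growth completely.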

Experiments:
Assay in all cases: NCI anticancer screen, dose series, 48 h
HT29 colon = system: HT29 colon
ACHN renal = system: ACHN renal
HS 578T breast = system: HS 578T breast
RPMI-8226 leukemia = system: RPMI-8226 leukemia
K-562 leukemia = system: K-562 leukemia
SR leukemia = system: SR leukemia
HCT-15 colon = system: HCT-15 colon
SF-539 CNS = system: SF-539 CNS
OVCAR-5 ovarian = system: OVCAR-5 ovarian
TK-10 renal = system: TK-10 renal
OVCAR-3 ovarian = system: OVCAR-3 ovarian
OVCAR-4 ovarian = system: OVCAR-4 ovarian
BT-549 breast = system: BT-549 breast
SK-MEL-5 melanoma = system: SK-MEL-5 melanoma
PC-3 prostate = system: PC-3 prostate
MCF7 breast = system: MCF7 breast
786-0 renal = system: 786-0 renal
HOP-62 NSCLC = system: HOP-62 NSCLC
MDA-MB-231 breast = system: MDA-MB-231 breast
SF-268 CNS = system: SF-268 CNS
RXF 393 renal = system: RXF 393 renal
UO-31 renal = system: UO-31 renal
HCT-116 colon = system: HCT-116 colon
KM12 colon = system: KM12 colon
HL-60(TB) leukemia = system: HL-60(TB) leukemia
SK-OV-3 ovarian = system: SK-OV-3 ovarian
MDA-MB-468 breast = system: MDA-MB-468 breast
NCI-H23 lung = system: NCI-H23 lung
A549 NSCLC = system: A549 NSCLC
HCC-2998 colon = system: HCC-2998 colon
SK-MEL-2 melanoma = system: SK-MEL-2 melanoma
SN12C renal = system: SN12C renal
IGROV1 ovarian = system: IGROV1 ovarian
MDA-MB-435 = system: MDA-MB-435
HOP-92 NSCLC = system: HOP-92 NSCLC
SNB-19 CNS = system: SNB-19 CNS
NCI/ADR-RES ovarian = system: NCI/ADR-RES ovarian
UACC-257 melanoma = system: UACC-257 melanoma
SF-295 CNS = system: SF-295 CNS
NCI-H522 lung = system: NCI-H522 lung
SW-620 colon = system: SW-620 colon
A498 renal = system: A498 renal
NCI-H460 lung = system: NCI-H460 lung
U251 CNS = system: U251 CNS
DU-145 prostate = system: DU-145 prostate
T-47D breast = system: T-47D breast
CCRF-CEM leukemia = system: CCRF-CEM leukemia
COLO 205 colon = system: COLO 205 colon
OVCAR-8 ovarian = system: OVCAR-8 ovarian
NCI-H226 lung = system: NCI-H226 lung
CAKI-1 renal = system: CAKI-1 renal
SK-MEL-28 melanoma = system: SK-MEL-28 melanoma
UACC-62 melanoma = system: UACC-62 melanoma
MALME-3M melanoma = system: MALME-3M melanoma
M14 melanoma = system: M14 melanoma
MOLT-4 leukemia = system: MOLT-4 leukemia
EKVX NSCLC = system: EKVX NSCLC
SNB-75 CNS = system: SNB-75 CNS

## Cn1cc(-c2cc(N)n3nc(-c4cn(C)c5ccccc45)cc3n2)c2cc(F)ccc21
HT29 colon
  GI50: 1.74 µM
  TGI: 3.34 µM
ACHN renal
  GI50: 1.77 µM
  TGI: 3.45 µM
HS 578T breast
  GI50: 2.39 µM
  TGI: 6.45 µM
RPMI-8226 leukemia
  GI50: 2.93 µM
  TGI: 8.56 µM
K-562 leukemia
  GI50: 2.72 µM
  TGI: 7.52 µM
SR leukemia
  GI50: 2.16 µM
  TGI: 7.54 µM
HCT-15 colon
  GI50: 1.79 µM
  TGI: 4.02 µM
SF-539 CNS
  GI50: 1.76 µM
  TGI: 3.34 µM
OVCAR-5 ovarian
  GI50: 2.37 µM
  TGI: 6.49 µM
TK-10 renal
  GI50: 2.01 µM
  TGI: 8.26 µM
OVCAR-3 ovarian
  GI50: 2.69 µM
  TGI: 6.53 µM
OVCAR-4 ovarian
  GI50: 2.49 µM
  TGI: 6.55 µM
BT-549 breast
  GI50: 10.5 µM
  TGI: 25.3 µM
SK-MEL-5 melanoma
  GI50: 1.87 µM
  TGI: 3.89 µM
PC-3 prostate
  GI50: 2.2 µM
  TGI: 5.54 µM
MCF7 breast
  GI50: 1.77 µM
  TGI: 3.95 µM
786-0 renal
  GI50: 1.51 µM
  TGI: 2.92 µM
HOP-62 NSCLC
  GI50: 1.96 µM
  TGI: 4.82 µM
MDA-MB-231 breast
  GI50: 1.97 µM
  TGI: 3.66 µM
SF-268 CNS
  GI50: 3.35 µM
  TGI: 13.4 µM
RXF 393 renal
  GI50: 1.97 µM
  TGI: 3.72 µM
UO-31 renal
  GI50: 1.62 µM
  TGI: 3.06 µM
HCT-116 colon
  GI50: 1.76 µM
  TGI: 3.18 µM
KM12 colon
  GI50: 2.47 µM
  TGI: 6.13 µM
HL-60(TB) leukemia
  GI50: 2.1 µM
  TGI: 5.11 µM
SK-OV-3 ovarian
  GI50: 3.32 µM
  TGI: 12.5 µM
MDA-MB-468 breast
  GI50: 1.92 µM
  TGI: 4.11 µM
NCI-H23 lung
  GI50: 2.08 µM
  TGI: 4.78 µM
A549 NSCLC
  GI50: 2.17 µM
  TGI: 6.44 µM
HCC-2998 colon
  GI50: 1.78 µM
  TGI: 3.32 µM
SK-MEL-2 melanoma
  GI50: 1.82 µM
  TGI: 3.63 µM
SN12C renal
  GI50: 1.71 µM
  TGI: 3.14 µM
IGROV1 ovarian
  GI50: 2.19 µM
  TGI: 5.18 µM
MDA-MB-435
  GI50: 1.78 µM
  TGI: 3.33 µM
HOP-92 NSCLC
  GI50: 2.06 µM
  TGI: 4.2 µM
SNB-19 CNS
  GI50: 3.09 µM
  TGI: 12.7 µM
NCI/ADR-RES ovarian
  GI50: 2.41 µM
  TGI: 6.26 µM
UACC-257 melanoma
  GI50: 1.75 µM
  TGI: 3.39 µM
SF-295 CNS
  GI50: 1.78 µM
  TGI: 3.68 µM
NCI-H522 lung
  GI50: 1.65 µM
  TGI: 3.42 µM
SW-620 colon
  GI50: 2.01 µM
  TGI: 4.05 µM
A498 renal
  GI50: 14.6 µM
  TGI: 29 µM
NCI-H460 lung
  GI50: 2.02 µM
  TGI: 4.2 µM
U251 CNS
  GI50: 1.82 µM
  TGI: 3.51 µM
DU-145 prostate
  GI50: 4.15 µM
  TGI: 22.3 µM
T-47D breast
  GI50: 2.63 µM
  TGI: 8.91 µM
CCRF-CEM leukemia
  GI50: 3.19 µM
  TGI: 24.2 µM
COLO 205 colon
  GI50: 1.89 µM
  TGI: 3.57 µM
OVCAR-8 ovarian
  GI50: 1.97 µM
  TGI: 3.95 µM
NCI-H226 lung
  GI50: 21.7 µM
  TGI: 68.5 µM
CAKI-1 renal
  GI50: 1.84 µM
  TGI: 3.98 µM
SK-MEL-28 melanoma
  GI50: 1.78 µM
  TGI: 3.44 µM
UACC-62 melanoma
  GI50: 1.68 µM
  TGI: 3.09 µM
MALME-3M melanoma
  GI50: 1.72 µM
  TGI: 3.14 µM
M14 melanoma
  GI50: 1.83 µM
  TGI: 3.52 µM
MOLT-4 leukemia
  GI50: 2.44 µM
  TGI: 7.25 µM
EKVX NSCLC
  GI50: 3.02 µM
  TGI: 15.7 µM
SNB-75 CNS
  GI50: 12.9 µM
  TGI: 28.6 µM
